ChEMBL document CHEMBL1799908, “Discovery and preliminary SARs of keto-indoles as novel indoleamine 2,3-dioxygenase (IDO) inhibitors” (Eur J Med Chem, 2011)
Activity calls are given as the source filed them. The calls are words filed in the database; no cut-off is given here.

Columns and labels:
[1] = target: T1, Indoleamine 2,3-dioxygenase 1 (Homo sapiens, UniProt P14902); experiment: Inhibition of histidine-tagged human recombinant IDO expressed in bacterial strain BL21 AI using L-Trptophan as substrate measured at 490 nm wavelength at 100 uM after 6 min by colorimetric assay
Target sequence in this assay (P14902 whole entry, looked up): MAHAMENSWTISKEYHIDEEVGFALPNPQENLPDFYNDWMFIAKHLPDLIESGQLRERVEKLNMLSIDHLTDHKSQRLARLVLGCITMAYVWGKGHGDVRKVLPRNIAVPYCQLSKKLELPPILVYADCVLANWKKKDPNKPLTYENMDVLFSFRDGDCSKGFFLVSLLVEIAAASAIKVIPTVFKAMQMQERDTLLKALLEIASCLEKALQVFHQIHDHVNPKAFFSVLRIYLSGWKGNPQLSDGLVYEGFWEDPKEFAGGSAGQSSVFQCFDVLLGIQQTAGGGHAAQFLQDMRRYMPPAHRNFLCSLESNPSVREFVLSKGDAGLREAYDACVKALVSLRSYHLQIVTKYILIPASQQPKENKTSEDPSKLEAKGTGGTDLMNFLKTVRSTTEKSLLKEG

[2] = target: Tryptophan 2,3-dioxygenase (Mus musculus) (UniProt P48776); experiment: Inhibition of mouse TDO expressed in mouse mastocytoma P815B cells using L-Trptophan as substrate at 20 uM after overnight by HPLC; format: cell-based
[3] = Cytotoxicity against mouse mastocytoma P815B cells assessed as cell viability at 20 uM after overnight incubation by MTT assay; format: cell-based; conditions: for Activity: p815b, 20 µM; for viability at 20 µM: mastocytoma P815B cells, read-out: Activity
[4] = target: Indoleamine 2,3-dioxygenase 1 (Mus musculus) (UniProt P28776); experiment: Inhibition of mouse IDO expressed in mouse mastocytoma P815B cells using L-Trptophan as substrate at 20 uM after overnight by HPLC; format: cell-based
[5] = target: T1, Indoleamine 2,3-dioxygenase 1; experiment: Competitive inhibition of histidine-tagged human recombinant IDO expressed in bacterial strain BL21 AI using L-Trptophan as substrate measured at 490 nm wavelength after 6 min by colorimetric assay
Target sequence in this assay (P14902 whole entry): as the sequence (P14902 whole entry, looked up) above

[6] = target: T1, Indoleamine 2,3-dioxygenase 1; experiment: Uncompetitive inhibition of histidine-tagged human recombinant IDO expressed in Escherichia coli using L-Trptophan as substrate assessed as hypochromic effect by UV analysis
Target sequence in this assay (P14902 whole entry, looked up): as above

[7] = target: T1, Indoleamine 2,3-dioxygenase 1; experiment: Uncompetitive inhibition of histidine-tagged human recombinant IDO expressed in bacterial strain BL21 AI using L-Trptophan as substrate measured at 490 nm wavelength after 6 min by colorimetric assay
Target sequence in this assay (P14902 whole entry): as the sequence (P14902 whole entry, looked up) above

Sequence of Tryptophan 2,3-dioxygenase (Mus musculus) (P48776 whole entry): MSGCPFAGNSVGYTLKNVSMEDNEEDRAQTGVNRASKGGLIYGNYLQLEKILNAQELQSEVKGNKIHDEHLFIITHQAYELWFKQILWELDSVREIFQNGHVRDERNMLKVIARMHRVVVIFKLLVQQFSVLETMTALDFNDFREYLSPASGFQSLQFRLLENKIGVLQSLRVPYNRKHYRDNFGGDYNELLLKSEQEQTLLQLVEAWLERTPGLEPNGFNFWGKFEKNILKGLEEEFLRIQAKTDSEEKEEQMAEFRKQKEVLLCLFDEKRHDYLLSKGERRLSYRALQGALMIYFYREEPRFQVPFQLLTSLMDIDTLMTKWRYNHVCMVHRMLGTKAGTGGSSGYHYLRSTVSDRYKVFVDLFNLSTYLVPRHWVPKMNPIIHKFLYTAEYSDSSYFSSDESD
Sequence of Indoleamine 2,3-dioxygenase 1 (Mus musculus) (P28776 whole entry, looked up): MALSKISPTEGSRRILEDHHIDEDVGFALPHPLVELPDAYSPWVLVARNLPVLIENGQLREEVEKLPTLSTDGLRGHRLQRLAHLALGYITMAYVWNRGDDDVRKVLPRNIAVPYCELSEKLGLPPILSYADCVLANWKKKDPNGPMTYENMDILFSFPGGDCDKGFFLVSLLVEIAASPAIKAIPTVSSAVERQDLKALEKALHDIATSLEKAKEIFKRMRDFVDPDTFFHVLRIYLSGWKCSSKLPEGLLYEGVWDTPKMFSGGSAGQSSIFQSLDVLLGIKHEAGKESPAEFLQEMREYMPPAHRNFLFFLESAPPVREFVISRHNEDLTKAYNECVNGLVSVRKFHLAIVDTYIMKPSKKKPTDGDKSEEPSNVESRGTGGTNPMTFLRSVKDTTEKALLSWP

Row | Structure (SMILES) | inhibition [2] | Activity [3] | viability at 20 µM [3] [%] | also measured
1 | N#Cc1ccc(-n2nnc3ccccc32)cc1 | – | – | – | inhibition [1]: > 50%
2 | Cn1c(C(=O)Cc2cccnc2)cc2ccccc21 | inactive | Non-toxic | – | –
3 | O=C(Cc1cccnc1)c1cc2cc(F)ccc2[nH]1 | inactive | Non-toxic | – | –
4 | Cc1ccc2[nH]c(C(=O)Cc3cccnc3)cc2c1 | inactive | Non-toxic | – | –
5 | OC(Cc1cccnc1)c1cc2ccccc2[nH]1 (configuration not stated) | inactive | – | 90 | –
6 | Cn1c(C(=O)Cc2cccnc2)cc2cc(F)ccc21 | inactive | – | 95 | inhibition [4]: inactive; IC50 [5]: 92 µM
7 | O=C(Cc1cccnc1)c1cc2cc([N+](=O)[O-])ccc2[nH]1 | inactive | – | 90 | –
8 | O=C(Cc1cccnc1)c1cc2cc(Cl)ccc2[nH]1 | inactive | – | 90 | –
9 | O=C(Nc1cccnc1)c1cc2ccccc2[nH]1 | inactive | – | 75 | –
10 | c1cncc(CCc2cc3ccccc3[nH]2)c1 | inactive | – | 90 | –
11 | COc1ccc2[nH]c(C(=O)Cc3cccnc3)cc2c1 | inactive | Non-toxic | – | –
12 | Cn1cc(C[C@H](N)C(=O)O)c2ccccc21 [(L)-1-METHYLTRYPTOPHAN] | inactive | Non-toxic | – | –
13 | O=C(Cc1cccnc1)c1cc2c(F)cccc2[nH]1 | inactive | – | 80 | –
14 | O=C(Cc1cccnc1)c1cc2ccccc2[nH]1 | inactive | Non-toxic | – | Activity [6]: Active; inhibition [1]: > 50%; Ki [7]: 190 µM
